Data on two molecules can be found in US20250250227A1, “AMINO LIPID COMPOUND, PREPARATION METHOD THEREFOR, COMPOSITION THEREOF AND USE THEREOF” (SHENZHEN SHENXIN BIOTECHNOLOGY CO., LTD., priority 2022, published 2025).

In data set [1] the test system is Female BALB/c mice. In words: Performance evaluation of delivery to lymph nodes of Fluc mRNA lipid nanoparticle (IVIS). To be noted: Fluc mRNA LNP; for Expression intensity (lymph nodes): 75 μL IV, 6 hours after injection, IVIS. The class given is in vivo. The procedure: (§1) Animal preparation: Female BALB/c mice of 6-8 weeks old were selected and raised in an SPF grade breeding room. Animal testing was conducted in strict accordance with the guidelines of national health institutions and animal ethics requirements.
In vivo Delivery: prior to injection of the test LNP formulations, the LNP formulations were gently and repeatedly inverted to thoroughly mix the formulation samples. A corresponding amount of the formulation samples were aspirated with a 1 ml insulin syringe, and the LNP formulations were injected by tail vein injection (IV), with 3 mice per formulation. Each mouse was injected with 75 μL the luciferase mRNA (Fluc mRNA)-encapsulating lipid nanoparticle formulation prepared in Experimental Example 1.
6 hours after injection of LNP formulations, mice were injected with 200 μL D-Luciferin luciferase developing substrate (Catalog No. 122799; Manufacturer: Perkin Elmer). After the substrate was injected, the mice were anesthetized with isoflurane inhalation, and the injection time of luciferase developing substrate was recorded.
The intensity of fluorescence expression induced by the lipid nanoparticle encapsulating luciferase mRNA (Fluc mRNA) with a representative amino lipid compound is shown in Table 6, with SM-102 as a control.

Data set [2] can be described thus: Preparation and characterisation of mRNA-encapsulating lipid nanoparticle (encapsulation efficiency, particle size). The class given is physicochemical. To be noted: LNP encapsulating Fluc mRNA; Lipid:DSPC:CHO-HP:M-DMG-2000 48:10:40.5:1.5. The method in brief:
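Fluc mRNA in sodium acetate buffer mixed with ethanolic amino lipid:DSPC:CHO-HP:M-DMG-2000 (48:10:40.5:1.5 molar) by microfluidics, mRNA:lipid mass ratio 1:10, then dialysed 2 h against Tris-8% sucrose and 0.22 μm filtered. Final mRNA 0.2 g/L; particle size and encapsulation efficiency measured.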

The subject of data set [3] is Female BALB/c mice. In words: IFN-γ Elispot cellular immunity test, spleen lymphocytes of mice immunized with IN002.5.1 mRNA LNP. The data set is classed as in vivo. To be noted: 50 μL IM, spleen on 7th day after immunization, FIG. 2-4. The procedure:
An IN002.5.1 mRNA-encapsulating lipid nanoparticle formulation was prepared according to the method as described in Experimental Example 1, with replacing the luciferase mRNA (Fluc mRNA) with IN002.5.1 mRNA, with a concentration of IN002.5.1 mRNA of 0.2 g/L, a mass ratio of IN002.5.1 mRNA to Lipid of 1:10, a particle size of 80-130 nm, and an encapsulation efficiency of 90% or higher.
The sequence of IN002.5.1 mRNA is one obtained by replacing all uracil (u) in SEQ ID NO. 1 with N1-methylpseudouridine. Of note is that the t (thymine) in the RNA sequence, SEQ ID NO. 1, in the Sequence Listing is actually u (uracil), according to the WIPO Standard ST. 26 for nucleotide or amino acid sequence listing.
as §1
Immunization of mice: Prior to injection of the test LNP formulations, the LNP formulations were gently and repeatedly inverted to thoroughly mix the formulation samples. A corresponding amount of the formulation samples were aspirated with a 1 ml insulin syringe, and the LNP formulations were injected by intramuscular injection (IM) […], with 8 mice per formulation. Each mouse was injected with 50 μL of the IN002.5.1 mRNA encapsulating lipid nanoparticle formulation.
Spleen acquisition: On the 7th day after immunization, 3 to 4 mice from each LNP immunization group were selected and euthanized, and their spleens were acquired in a super clean bench.
Isolation of lymphocytes: The spleens of mice were taken out in a super clean bench. 7 mL of mouse lymphocyte separation solution was added to a 6-well cell culture plate. Mouse spleen cells were ground with a syringe piston, and the suspension of the spleen cells was filtered through a cell screen and immediately transferred to a 15 mL centrifuge tube. […] RPMI 1640 medium was slowly added with keeping the liquid interface distinct. After centrifugation at 800 g with a horizontal rotor at room temperature for 30 minutes, a clear stratification can be visible. The lymphocyte layer was aspirated, then added with 10 mL RPMI 1640 medium, and inverted for washing. The cells were collected by centrifugation at 250 g for 10 min at room temperature, and the red blood cells were lysed. After completing lysis of red blood cells, the supernatant was poured, and the cells were resuspended in culture medium and counted.
Addition of stimulant and culture of lymphocyte: RPMI-1640 medium containing 10% fetal bovine serum was used to activate the pre-coated plate. After standing at room temperature for at least 30 min, the medium was removed, and a cell suspension at adjusted concentration was added ([…]). The medium used to resuspend the cells was used as a background negative control. 10 μL positive stimulant working solution (PMA+Ionomycin (dissolved in DPBS) was added to a positive control well; […] medium used to resuspend the cells was added to a negative control well; 10 µL/well of a peptide library diluted with RPMI 1640 was added to experimental wells. After all samples and the stimulant were added, the plate was covered, incubated in an incubator with 5% CO2 at 37° C. for 16-24 h.
Elispot detection after culture: The cells and the culture medium in the wells were dumped, and the wells were lysed with 200 μL/well of ice-cold deionized water at 4° C. for 10 min. The liquid in the wells were shaken out, and the wells were washed five times with PBS buffer. The wells were incubated with 100 μL/well of 1 μg/ml detection antibody for 2 h at room temperature; and after washing the plate 5 times with PBS, the wells were incubated with 100 μL/well of 1000-fold diluted enzyme labeled avidin (Streptavidin-HRP) for 1 h at room temperature. […]

Data set [4] deals with Female BALB/c mice. In words: Performance evaluation of in vivo delivery of Fluc mRNA lipid nanoparticle (IVIS, body and organs). To be noted: Fluc mRNA LNP. A digest of the protocol: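 Female BALB/c mice, 6-8 weeks, received 75 μL Fluc mRNA-LNP by tail-vein injection, 3 mice per formulation. At 6 h, 200 μL D-luciferin was injected, mice were anesthetized with isoflurane, and IVIS bioluminescence was imaged in body and organs.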

Consider `CCCCCCC(CCCCCC)OC(=O)CCCCCCCCC(CCCCCCCCC(=O)OC(CCCCCC)CCCCCC)OC(=O)N(CCCN(C)C)CC(=O)OCC` [Compound 268], for which the “Expression intensity (lymph nodes)” value in data set [1] is listed as 1.78E+06. For the same molecule, in data set [1] (IV, statement on Table 6), the “Delivery effect on lymph nodes compared to SM102” value is “better delivery effect on lymph nodes”. This molecule came in with an Encapsulation efficiency in data set [2] of 92.22%. Besides, in data set [3], the “Cellular immunity effect (IFN-γ Elispot) compared to ALC0315” value was “better cellular immunity effect”. Besides, the “Liver (fluorescence expression intensity)” value in data set [4] (75 μL IV, 6 hours after injection, IVIS, liver) was 2.11E+07. Further, the “Spleen (fluorescence expression intensity)” value in data set [4] (75 μL IV, 6 hours after injection, IVIS, spleen) worked out at 8.01E+06. The “Total flux (fluorescence expression intensity)” value in data set [4] (75 μL tail vein injection (IV), 6 hours after injection, IVIS) was 1.23E+08. In addition, the “(Spleen/Total Flux) * 100%” value in data set [4] (IV, 6 hours after injection) is on record as 6.51%. The “Multiple of spleen delivery/total delivery to amino lipid compound 118” value in data set [4] (IV, relative to amino lipid compound 118) worked out at 19.15.
Regarding `CCCCCCCCCCCOC(=O)CCCCCN(CCO)CCCCCCCC(=O)OC(CCCCCCCC)CCCCCCCC` [SM-102, reference compound], the “Expression intensity (lymph nodes)” value in data set [1] was 4.94E+05.
